# Experimental data as given in ChEMBL document CHEMBL2413072, “Synthesis and in vitro anticancer studies of novel C-2 arylidene congeners of lantadenes” (2013).
# Columns and labels:
# Type in all cases: functional
# [1] = Growth inhibition of human Hs 578T cells assessed as growth inhibition at 10 uM by sulforhodamine B assay; details: read-out: GI
# [2] = tested on: UO-31; test: Growth inhibition of human UO31 cells assessed as growth inhibition at 10 uM by sulforhodamine B assay; details: read-out: GI
# [3] = tested on: SN12C; test: Growth inhibition of human SN12C cells assessed as growth inhibition at 10 uM by sulforhodamine B assay; details: read-out: GI
# [4] = tested on: RXF 393; test: Growth inhibition of human RXF393 cells assessed as growth inhibition at 10 uM by sulforhodamine B assay; details: read-out: GI
# [5] = tested on: ACHN; test: Growth inhibition of human ACHN cells assessed as growth inhibition at 10 uM by sulforhodamine B assay; details: read-out: GI
# [6] = tested on: OVCAR-8; test: Growth inhibition of human OVCAR8 cells assessed as growth inhibition at 10 uM by sulforhodamine B assay; details: read-out: GI
# [7] = tested on: CCRF-CEM; test: Growth inhibition of human CCRF-CEM cells assessed as cell growth at 10 uM by sulforhodamine B assay; details: read-out: Activity
# [8] = tested on: M14; test: Growth inhibition of human M14 cells assessed as growth inhibition at 10 uM by sulforhodamine B assay; details: read-out: GI
# [9] = tested on: LOX IMVI; test: Growth inhibition of human LOXIMVI cells assessed as growth inhibition at 10 uM by sulforhodamine B assay; details: read-out: GI
# [10] = tested on: SF-268; test: Growth inhibition of human SF268 cells assessed as growth inhibition at 10 uM by sulforhodamine B assay; details: read-out: GI
# [11] = tested on: CCRF-CEM; test: Growth inhibition of human CCRF-CEM cells assessed as growth inhibition at 10 uM by sulforhodamine B assay; details: read-out: GI
# [12] = tested on: T47D; test: Growth inhibition of human T47D cells assessed as cell growth at 10 uM by sulforhodamine B assay; details: read-out: Activity
# [13] = tested on: BT-549; test: Growth inhibition of human BT549 cells assessed as cell growth at 10 uM by sulforhodamine B assay; details: read-out: Activity
# [14] = tested on: MCF7; test: Growth inhibition of human MCF7 cells assessed as cell growth at 10 uM by sulforhodamine B assay; details: read-out: Activity
# [15] = tested on: RXF 393; test: Growth inhibition of human RXF393 cells assessed as cell growth at 10 uM by sulforhodamine B assay; details: read-out: Activity
# [16] = tested on: A498; test: Growth inhibition of human A498 cells assessed as cell growth at 10 uM by sulforhodamine B assay; details: read-out: Activity
# [17] = tested on: LOX IMVI; test: Growth inhibition of human LOXIMVI cells assessed as cell growth at 10 uM by sulforhodamine B assay; details: read-out: Activity
# [18] = tested on: HCT-116; test: Growth inhibition of human HCT116 cells assessed as cell growth at 10 uM by sulforhodamine B assay; details: read-out: Activity
# [19] = tested on: NCI-H460; test: Growth inhibition of human NCI-H460 cells assessed as cell growth at 10 uM by sulforhodamine B assay; details: read-out: Activity
# [20] = tested on: NCI-H226; test: Growth inhibition of human NCI-H226 cells assessed as cell growth at 10 uM by sulforhodamine B assay; details: read-out: Activity
# [21] = tested on: SR; test: Growth inhibition of human SR cells assessed as cell growth at 10 uM by sulforhodamine B assay; details: read-out: Activity
smiles,measurement,setting,value
CC1(C)C[C@@H](O)[C@]2(C(=O)O)CC[C@]3(C)C(=CC[C@@H]4[C@@]5(C)CC[C@H](O)C(C)(C)[C@@H]5CC[C@]43C)[C@@H]2C1,inhibition of growth at 10 µM,[1],< 10%
same,inhibition of growth at 10 µM,[2],13.9%
same,inhibition of growth at 10 µM,[3],16.6%
same,inhibition of growth at 10 µM,[4],< 10%
same,inhibition of growth at 10 µM,[5],< 10%
same,inhibition of growth at 10 µM,[6],< 10%
same,growth at 10 µM,[7],88.4%
same,inhibition of growth at 10 µM,[8],< 10%
same,inhibition of growth at 10 µM,[9],11.1%
same,inhibition of growth at 10 µM,[10],< 10%
same,inhibition of growth at 10 µM,[11],11.6%
same,growth at 10 µM,[12],93%
same,growth at 10 µM,[13],90.3%
same,growth at 10 µM,[14],96.4%
same,growth at 10 µM,[15],112%
same,growth at 10 µM,[16],102%
same,growth at 10 µM,[17],89%
same,growth at 10 µM,[18],82.7%
same,growth at 10 µM,[19],101%
same,growth at 10 µM,[20],107%
same,growth at 10 µM,[21],78%
